Assay results reported in patent US20170035894A1, “DRUG DELIVERY CONJUGATES FOR TREATING RESISTANT CANCER AND FOR USE IN COMBINATION THERAPY” (ENDOCYTE, INC., priority 2014, published 2017).
Where two headings read alike, the source gives them in different places.

Experiments:
KB cells = format: cell-based, human
Method: METHOD. Inhibition of Cellular DNA Synthesis. The compounds described herein were evaluated using an in vitro cytotoxicity assay that predicts the ability of the drug to inhibit the growth of folate receptor-positive cells, such as KB cells, RAW264.7 macrophages, and the like. It is to be understood that the choice of cell type can made on the basis of the susceptibility of those selected cells to the drug that forms the conjugate. The test compounds were comprised of folate linked to a respective chemotherapeutic drug, as prepared according to the processes described herein. The test cells were exposed to varying concentrations of folate-drug conjugate, and also in the absence or presence of at least a 100-fold excess of folic acid to assess activity as being specific to folate receptor mediation.
Conjugates of cytotoxic drugs described herein are active against KB cells. The activity is mediated by the folate receptor as indicated by competition experiments using co-administered folic acid. KB cells were exposed for up to 7 h at 37° C. to the indicated concentrations of folate-drug conjugate in the absence or presence of at least a 100-fold excess of folic acid. The cells were then rinsed once with fresh culture medium and incubated in fresh culture medium for 72 hours at 37° C. Cell viability was assessed using a ^3H-thymidine incorporation assay. For compounds described herein, dose-dependent cytotoxicity was generally measurable, and in most cases, the IC50 values (concentration of drug conjugate required to reduce ^3H-thymidine incorporation into newly synthesized DNA by 50%) are in the low nanomolar range.
METHOD. In vitro activity against various cancer cell lines. IC50 values were generated for various cell lines. Cells were heavily seeded in 24-well Falcon plates and allowed to form nearly confluent monolayers overnight. Thirty minutes prior to the addition of the test compound, spent medium was aspirated from all wells and replaced with fresh folate-deficient RPMI medium (FFRPMI). A subset of wells were designated to receive media containing 100 μM folic acid. The cells in the designated wells were used to determine the targeting specificity. Without being bound by theory it is believed herein that the cytotoxic activity produced by test compounds in the presence of excess folic acid, i.e. where there is competition for FR binding, corresponds to the portion of the total activity that is unrelated to FR-specific delivery. Following one rinse with 1 mL of fresh FFRPMI containing 10% heat-inactivated fetal calf serum, each well received 1 mL of medium containing increasing concentrations of test compound (4 wells per sample) in the presence or absence of 100 μM free folic acid as indicated. Treated cells were pulsed for 2 h at 37° C., rinsed 4 times with 0.5 mL of media, and then chased in 1 mL of fresh medium up to 70 h. Spent medium was aspirated from all wells and replaced with fresh medium containing 5 μCi/mL ^3H-thymidine. Following a further 2 h 37° C. incubation, cells were washed 3 times with 0.5 mL of PBS and then treated with 0.5 mL of ice-cold 5% trichloroacetic acid per well. After 15 min, the trichloroacetic acid was aspirated and the cell material solubilized by the addition of 0.5 mL of 0.25 N sodium hydroxide for 15 min. A 450 μL aliquot of each solubilized sample was transferred to a scintillation vial containing 3 mL of Ecolume scintillation cocktail and then counted in a liquid scintillation counter. Final results are expressed as the percentage of ^3H-thymidine incorporation relative to untreated controls.

KB tumors = assay: Inhibition of tumor growth, s.c. KB tumors; format: in vivo, nu/nu mice; set-up: key to In vivo activity (e): CR=complete response, where tumor volume, as defined herein, during the observation period was zero for all test animals in the group; settings: for CR (%) / Cures (%) / PR (%): TIW
Method: METHOD. Inhibition of Tumor Growth in Mice. Four to seven week-old mice (Balb/c or nu/nu strains) were purchased from Harlan Sprague Dawley, Inc. (Indianapolis, Ind.). Normal rodent chow contains a high concentration of folic acid (6 mg/kg chow); accordingly, test animals were maintained on a folate-free diet (Harlan diet #TD00434) for about 1 week before tumor implantation to achieve serum folate concentrations close to the range of normal human serum, and during the Method. For tumor cell inoculation, 1×10^6 M109 cells (a syngeneic lung carcinoma) in Balb/c strain, or 1×10^6 KB cells in nu/nu strain, in 100 μL were injected in the subcutis of the dorsal medial area (right axilla). Tumors were measured in two perpendicular directions every 2-3 days using a caliper, and their volumes were calculated as 0.5×L×W^2, where L=measurement of longest axis in mm and W=measurement of axis perpendicular to L in mm.
Dosing solutions were prepared fresh each day in PBS and administered through the lateral tail vein of the mice.
Tumor implantation. KB tumor cells were grown in folate-deficient RPMI 1640 with 5% FBS at 37° C. in a 5% CO2 humidified atmosphere. KB (1×10^6 cells per animal) tumor cells were inoculated subcutaneously […] post start of the folate deficient diet. Mice were dosed after the tumors reached between 100-150 mm3.
Preparation of dosing drug solutions. Dosing solutions were prepared when dosing began by weighing appropriate amounts of each compound, reconstituting in PBS, pH 7.4, sterile filtering the drug solution through a 0.22 µm PVDF syringe filter, and freezing aliquots for each day of dosing at −20° C.
Evaluation. Tumor size was monitored and body weight measured 3 times/week. Attention was given to gross animal morphology and behavior. Euthanasia was performed if the mice lost >20% of weight or when the tumors reached a size of 1500 mm3. Euthanasia was also performed at the researcher's discretion if mice lost a lot of weight in a short duration or when mice were approaching moribund conditions. Blood samples were collected by cardiac puncture from all viable animals from selected cohorts. Heart, lungs, liver, spleen, kidney, intestines, bone, brain and muscle were obtained immediately after euthanasia. The tissues were removed and stored in 10% neutral-buffered formalin.
For example, a 50% decrease in tumor volume from the initial measurement represents a partial response.
For example, a decrease in tumor volume where the measurements in two perpendicular directions are each about 2 mm or less represents a complete response.

[1] = difference in IC50 between competed and non-competed group

CCCC(=O)OCN(C(=O)[C@@H](NC(=O)[C@H]1CCCCN1C)C(C)CC)[C@H](C[C@@H](OC(C)=O)c1nc(C(=O)N[C@@H](Cc2ccc(O)cc2)C[C@H](C)C(=O)NNC(=O)OCCSSC[C@@H](NC(=O)[C@H](CCC(=O)NC[C@H](O)[C@@H](O)[C@H](O)[C@H](O)CO)NC(=O)[C@@H](CCC(=O)O)NC(=O)[C@H](CCC(=O)NC[C@H](O)[C@@H](O)[C@H](O)[C@H](O)CO)NC(=O)[C@@H](CCC(=O)O)NC(=O)[C@H](CCC(=O)NC[C@H](O)[C@@H](O)[C@H](O)[C@H](O)CO)NC(=O)CC[C@@H](NC(=O)c2ccc(NCc3cnc4nc(N)[nH]c(=O)c4n3)cc2)C(=O)O)C(=O)O)cs1)C(C)C (stereo in doubt) [EC1456]
IC50 (KB cells; FR expression +++, read-out: Activity (IC50)): 2.3 nM | IC50 (KB cells; IC50 when competed with excess folic acid, read-out: 50% competition (nM) (c)): 1420 nM | IC50 (KB cells; as determined by thymidine incorporation, read-out: In vitro IC50 (nM) (b)): 1.5 nM | In vitro specificity (fold) (d) (KB cells; [1]): 944 fold | specificity for the folate receptor as determined by folic acid competition (KB cells; [1]): ca. 1000 fold | Competable up to 100 nM (KB cells; folic acid competition): Yes | improvement in specificity compared to comparator compound EC0531 (KB cells; folic acid competition): 4 fold | CR (%) (KB tumors; 0.5 μmol/kg, 3 weeks): 0% | Cures (%) (KB tumors; 0.5 μmol/kg, 3 weeks): 0% | PR (%) (KB tumors; 0.5 μmol/kg, 3 weeks): 60% | CR (%) (KB tumors; 0.67 μmol/kg, 2 weeks): 20% | Cures (%) (KB tumors; 0.67 μmol/kg, 2 weeks): 0% | PR (%) (KB tumors; 0.67 μmol/kg, 2 weeks): 60% | CR (%) (KB tumors; 1.0 μmol/kg, 2 weeks): 60% | Cures (%) (KB tumors; 1.0 μmol/kg, 2 weeks): 60% | PR (%) (KB tumors; 1.0 μmol/kg, 2 weeks): 40% | CR (%) (KB tumors; 2.0 μmol/kg, 2 weeks): 100% | Cures (%) (KB tumors; 2.0 μmol/kg, 2 weeks): 100% | PR (%) (KB tumors; 2.0 μmol/kg, 2 weeks): 0% | efficacy of co-administration of EC1456 and carboplatin and paclitaxel (KB tumors; EC1456 1 μmol/kg BIW×2 + carboplatin 30 mg/kg BIW×2 + paclitaxel 10 mg/kg BIW×2): enhanced technical effect over EC1456 alone and the combination of carboplatin with paclitaxel | efficacy of co-administration of EC1456 and cisplatin (KB tumors; EC1456 1 μmol/kg BIW×2 + cisplatin 3 mg/kg BIW×3): enhanced technical effect over both monotherapies | efficacy of EC1456 alone compared to cisplatin (KB tumors; EC1456 1 μmol/kg BIW×2 vs cisplatin 3 mg/kg BIW×3): improved efficacy over cisplatin | efficacy of co-administration of EC1456 and bevacizumab (KB tumors; EC1456 1 μmol/kg TIW×2 + avastin 5 mg/kg BIW×2): enhanced technical effect over both monotherapies | efficacy of EC1456 alone compared to bevacizumab (KB tumors; EC1456 1 μmol/kg TIW×2 vs avastin 5 mg/kg BIW×2): improved efficacy over bevacizumab | cures, % of the mice (KB tumors; EC1456 added to the carboplatin/paclitaxel combination): 100% | PR's (KB tumors; EC1456 alone 1 μmol/kg twice a week for 2 weeks): 20% | efficacy of co-administration of EC1456 and topotecan (KB tumors; P-1606 KB tumors, EC1456 1 μmol/kg BIW×2 + topotecan 5 mg/kg BIW×2): enhanced technical effect over both monotherapies | efficacy of EC1456 alone compared to topotecan (KB tumors; P-1606 KB tumors, EC1456 1 μmol/kg BIW×2 vs topotecan 5 mg/kg BIW×2): improved efficacy over topotecan | efficacy of co-administration of EC1456 and docetaxel (KB tumors; P-1609 KB tumors, EC1456 1 μmol/kg TIW×5 + docetaxel 7 mg/kg BIW×3): enhanced technical effect over both monotherapies | efficacy of co-administration of EC1456 and topotecan (KB tumors; P-1609 KB tumors, EC1456 1 μmol/kg TIW×5 + topotecan 5 mg/kg TIW×5): enhanced technical effect over both monotherapies | efficacy of EC1456 alone compared to docetaxel (KB tumors; P-1609 KB tumors, EC1456 1 μmol/kg TIW×5 vs docetaxel 7 mg/kg BIW×3): improved efficacy over docetaxel | efficacy of EC1456 alone compared to topotecan (KB tumors; P-1609 KB tumors, EC1456 1 μmol/kg TIW×5 vs topotecan 5 mg/kg TIW×5): improved efficacy over topotecan | efficacy of co-administration of EC1456 and carboplatin (KB tumors; P-1635 KB tumors, EC1456 1 μmol/kg TIW + carboplatin 50 mg/kg TIW): enhanced technical effect over both monotherapies | efficacy of EC1456 alone compared to carboplatin (KB tumors; P-1635 KB tumors, EC1456 1 μmol/kg TIW×2 vs carboplatin 50 mg/kg TIW): improved efficacy over carboplatin | specific activity mediated by the folate receptor (KB tumors; co-dosed with excess comparator compound EC0923 (50 or 100 μmol/kg)): competable | anti-tumor activity / response (KB tumors; human KB tumors in mice, conjugated vs unconjugated drugs): dose responsive anti-tumor activity | complete response, test animals (KB tumors; intravenously 1 μmol/kg TIW, 2 wk): 4/4 | In vivo activity (e) (KB tumors; subcutaneous KB tumor in nu/nu mice): CR
